Results: US10239832B2, “N-(1-hydroxy-3-(pyrrolidinyl)propan-2-yl)pyrrolidine-3-carboxamide derivatives as glucosylceramide synthase inhibitors” (BIOMARIN PHARMACEUTICAL INC., priority 2013, dated 2019)

The molecules below were run against T1, GCS (Canis lupus familiaris, UniProt A0A8I3MXG6) (assay: GCS enzymatic assay (MDCK cell lysate, NBD-ceramide to glucosylceramide, LC/MS)). Details: Table 2; class symbols A, B, C; the table does not say which of the assays; read-out: Data Range (IC50 values).
T1 construct: endogenous in cells; host or cells: MDCK (Madin-Darby canine kidney) cells, whole-cell lysate
T1 sequence (A0A8I3MXG6 1-394): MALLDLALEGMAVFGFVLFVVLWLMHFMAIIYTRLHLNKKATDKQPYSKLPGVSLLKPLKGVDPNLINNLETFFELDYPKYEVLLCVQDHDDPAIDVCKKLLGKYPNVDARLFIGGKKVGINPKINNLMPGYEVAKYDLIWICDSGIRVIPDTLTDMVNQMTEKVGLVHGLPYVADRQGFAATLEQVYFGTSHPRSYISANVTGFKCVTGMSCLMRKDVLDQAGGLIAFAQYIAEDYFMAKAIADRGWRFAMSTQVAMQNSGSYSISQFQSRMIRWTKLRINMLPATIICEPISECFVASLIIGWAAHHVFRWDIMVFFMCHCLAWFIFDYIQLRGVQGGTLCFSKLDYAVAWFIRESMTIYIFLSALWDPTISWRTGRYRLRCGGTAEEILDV
Assay type: biochemical, canine
Procedure: This assay was modified based on the study by Larsen et al. (J. Lipid Res. 2011, 53, 282). Madin-Darby canine kidney (MDCK) cell lysate was prepared using M-PER Mammalian Protein Extraction Reagent (Thermal Scientific) in the presence of a protease inhibitor cocktail (Roche). Protein concentration was determined using BCA assay kit (Pierce). […] 0.1% DMSO was used as mock treatment or control. The reaction was terminated by adding 100 μL acetonitrile solution and subjected to LC/MS analysis.
The quantitative analysis of NBD-Ceramide and glucosylceramide was performed on a Shimadzu ultra-fast liquid chromatography (Shimadzu, Japan) coupled with API 4000 triple quadrupole mass spectrometer (Applied Biosystems, Concord, Ontario, Canada). Sample separation was conducted on a Waters Xbridge™ BEH130 C18, 100 mm×4.6 mm i.d, 3.5 μm (Milford, Mass., USA). The mobile phase consisted of water and acetonitrile supplemented with 0.1% formic acid (v/v). The flow rate was 1.0 mL/min. The initial mobile phase was 20% acetonitrile and was ramped in a linear fashion to 50% acetonitrile in 0.4 min. From 0.4 to 1.5 min, the gradient was ramped to 98% acetonitrile, and then was held at […] until 8.0 min. Acetonitrile was reset to 20% in 1.5 min, and maintained until 10.0 min. The total run time was 10.0 min. The MS/MS detection was performed in ESI positive mode. The mass transition of NBD-Ceramide was m/z 576.36→558.40 under the collision energy of 15 V, and the mass transition of glucosylceramide was m/z 738.35→558.40 under 21V collision energy. The cell lysate was diluted with equal volume of acetonitrile. Aliquots of 50 μL diluted samples were added to 1.5 mL tubes, and 100 μL of acetonitrile containing internal standard (100 ng/mL tolbutamide) were added for protein precipitation. The mixture were vortexed and then centrifuged at 13000 rpm for 10 min. 70 μL of supernatant were mixed with 140 μL of H2O and the final solution were injected for LC/MS/MS analysis and IC50's and/or percent inhibitions calculated.

Row | IC50 [nM] | SMILES
1 | 1 to 30 | CC(C)Oc1ccc([C@@H](O)[C@@H](CN2CCCC2)NC(=O)[C@@H]2CCN(c3ccc(Cl)cc3)C2)cc1Cl [Compound 23, (R)-N-((1R,2R)-1-(3-chloro-4-isopropoxyphenyl)-1-hydroxy-3-(pyrrolidin-1-yl)propan-2-yl)-1-(4-chlorophenyl)pyrrolidine-3-carboxamide]
2 | 1 to 30 | O=C(N[C@H](CN1CCCC1)[C@H](O)c1ccc2c(c1)OCCO2)[C@@H]1CCN(c2ccc(F)cc2)C1 [Compound 24, (R)-N-((1R,2R)-1-(2,3-dihydrobenzo[b][1,4]dioxin-6-yl)-1-hydroxy-3-(pyrrolidin-1-yl)propan-2-yl)-1-(4-fluorophenyl)pyrrolidine-3-carboxamide]
3 | 1 to 30 | O=C(N[C@H](CN1CCCC1)[C@H](O)c1ccc2c(c1)OCCO2)C1CCN(c2ccc(F)cc2)C1 (stereo partly drawn) [Compound 24B, N-((1R,2R)-1-(2,3-dihydrobenzo[b][1,4]dioxin-6-yl)-1-hydroxy-3-(pyrrolidin-1-yl)propan-2-yl)-1-(4-fluorophenyl)pyrrolidine-3-carboxamide]
4 | 1 to 30 | O=C(N[C@H](CN1CCC1)[C@H](O)c1cc(F)c2c(c1)OCCO2)[C@@H]1CCN(c2ccc(Cl)cc2)C1 [Compound 25, (R)-N-((1R,2R)-3-(azetidin-1-yl)-1-(8-fluoro-2,3-dihydrobenzo[b][1,4]dioxin-6-yl)-1-hydroxypropan-2-yl)-1-(4-chlorophenyl)pyrrolidine-3-carboxamide]

Same assay, conditions: Table 2; class symbols D, E, F, NA (not active); the table does not say which of the assays

Row | SMILES | Data Range (% inhibition)
5 | O=C(N[C@H](CN1CCCC1)[C@H](O)c1ccc2c(c1)OCCO2)[C@H]1CCN(CCc2ccc(Cl)cc2)C1 [Compound 21F, (S)-1-(4-chlorophenethyl)-N-((1R,2R)-1-(2,3-dihydrobenzo[b][1,4]dioxin-6-yl)-1-hydroxy-3-(pyrrolidin-1-yl)propan-2-yl)pyrrolidine-3-carboxamide] | F (1-49% (or less than 50%))
6 | O=C(N[C@H](CN1CCCC1)[C@H](O)c1ccc2c(c1)OCCO2)[C@@H]1CCN(c2ccccn2)C1 [Compound 22, (R)-N-((1R,2R)-1-(2,3-dihydrobenzo[b][1,4]dioxin-6-yl)-1-hydroxy-3-(pyrrolidin-1-yl)propan-2-yl)-1-(pyridin-2-yl)pyrrolidine-3-carboxamide] | E (50-74% (or less than 75%))
7 | O=C(N[C@H](CN1CCCC1)[C@H](O)c1ccc2c(c1)OCCO2)C1CCN(c2ccccn2)C1 (stereo partly drawn) [Compound 22C, N-((1R,2R)-1-(2,3-dihydrobenzo[b][1,4]dioxin-6-yl)-1-hydroxy-3-(pyrrolidin-1-yl)propan-2-yl)-1-(pyridin-2-yl)pyrrolidine-3-carboxamide] | F (1-49% (or less than 50%))
8 | O=C(N[C@H](CN1CCCC1)[C@H](O)c1ccc2c(c1)OCCO2)[C@H]1CCN(c2ccccn2)C1 [Compound 22D, (S)-N-((1R,2R)-1-(2,3-dihydrobenzo[b][1,4]dioxin-6-yl)-1-hydroxy-3-(pyrrolidin-l-yl)propan-2-yl)-1-(pyridin-2-yl)pyrrolidine-3-carboxamide] | F (1-49% (or less than 50%))
9 | O=C(N[C@H](CN1CCCC1)[C@H](O)c1ccc2c(c1)OCCO2)[C@H]1CCN(c2ccc(F)cc2)C1 [Compound 24C, (S)-N-((1R,2R)-1-(2,3-dihydrobenzo[b][1,4]dioxin-6-yl)-1-hydroxy-3-(pyrrolidin-1-yl)propan-2-yl)-1-(4-fluorophenyl)pyrrolidine-3-carboxamide] | NA (not active—a negative value was generated for % inhibition)
10 | O=C(N[C@H](CN1CCCC1)[C@H](O)c1ccc2c(c1)OCCO2)C1CCN(C2CCCCC2)C1 (stereo partly drawn) [Compound 26, 1-cyclohexyl-N-((1R,2R)-1-(2,3-dihydrobenzo[b][1,4]dioxin-6-yl)-1-hydroxy-3-(pyrrolidin-1-yl)propan-2-yl)pyrrolidine-3-carboxamide] | NA (not active—a negative value was generated for % inhibition)
11 | O=C(N[C@H](CN1CCCC1)[C@H](O)c1ccc(OC2CC2)nc1)[C@@H]1CCN(c2ccc(F)cc2)C1 [Compound 27, (R)-N-((1R,2R)-1-(6-cyclopropoxypyridin-3-yl)-1-hydroxy-3-(pyrrolidin-1-yl)propan-2-yl)-1-(4-fluorophenyl)pyrrolidine-3-carboxamide] | E (50-74% (or less than 75%))
12 | O=C(N[C@H](CN1CCCC1)[C@H](O)c1ccc2c(c1)OCCO2)[C@@H]1CCN(c2ccc(Cl)cn2)C1 [Compound 28, (R)-1-(5-chloropyridin-2-yl)-N((1R,2R)-1-(2,3-dihydrobenzo[b][1,4]dioxin-6-yl)-1-hydroxy-3-(pyrrolidin-1-yl)propan-2-yl)pyrrolidine-3-carboxamide] | E (50-74% (or less than 75%))
13 | O=C(N[C@H](CN1CCCC1)[C@H](O)c1ccc2c(c1)OCCO2)[C@H]1CCN(c2ccc(Cl)cn2)C1 [Compound 28D, (S)-1-(5-chloropyridin-2-yl)-N-((1R,2R)-1-(2,3-dihydrobenzo[b][1,4]dioxin-6-yl)-1-hydroxy-3-(pyrrolidin-1-yl)propan-2-yl)pyrrolidine-3-carboxamide] | NA (not active—a negative value was generated for % inhibition)
14 | CC(C)Oc1ccc([C@@H](O)[C@@H](CN2CCCC2)NC(=O)[C@@H]2CCN(c3ccc(Cl)cc3)C2)cn1 [Compound 29, (R)-1-(4-chlorophenyl)-N-((1R,2R)-1-hydroxy-1-(6-isopropoxypyridin-3-yl)-3-(pyrrolidin-1-yl)propan-2-yl)pyrrolidine-3-carboxamide] | F (1-49% (or less than 50%))
15 | CCCCN1CCC(C(=O)N[C@H](CN2CCCC2)[C@H](O)c2ccc3c(c2)OCCO3)C1 (stereo partly drawn) [Compound 30, 1-butyl-N-((1R,2R)-1-(2,3-dihydrobenzo[b][1,4]dioxin-6-yl)-1-hydroxy-3-(pyrrolidin-1-yl)propan-2-yl)pyrrolidine-3-carboxamide] | NA (not active—a negative value was generated for % inhibition)

The next lines start with the values.

Row | Data Range (% inhibition) | SMILES
16 | F (1-49% (or less than 50%)) | CC(C)Oc1ccc([C@@H](O)[C@@H](CN2CCCC2)NC(=O)[C@H]2CCN(c3ccc(Cl)cc3)C2)cc1Cl [Compound 23B, (S)-N-((1R,2R)-1-(3-chloro-4-isopropoxyphenyl)-1-hydroxy-3-(pyrrolidin-1-yl)propan-2-yl)-1-(4-chlorophenyl)pyrrolidine-3-carboxamide]
17 | F (1-49% (or less than 50%)) | O=C(N[C@H](CN1CCC1)[C@H](O)c1cc(F)c2c(c1)OCCO2)[C@H]1CCN(c2ccc(Cl)cc2)C1 [Compound 25B, (S)-N-((1R,2R)-3-(azetidin-1-yl)-1-(8-fluoro-2,3-dihydrobenzo[b][1,4]dioxin-6-yl)-1-hydroxypropan-2-yl)-1-(4-chlorophenyl)pyrrolidine-3-carboxamide]
18 | F (1-49% (or less than 50%)) | O=C(N[C@H](CN1CCCC1)[C@H](O)c1ccc(OC2CC2)nc1)[C@H]1CCN(c2ccc(F)cc2)C1 [Compound 27C, (S)-N-((1R,2R)-1-(6-cyclopropoxypyridin-3-yl)-1-hydroxy-3-(pyrrolidin-1-yl)propan-2-yl)-1-(4-fluorophenyl)pyrrolidine-3-carboxamide]
19 | F (1-49% (or less than 50%)) | O=C(N[C@H](CN1CCCC1)[C@H](O)c1ccc2c(c1)OCCO2)C1CCN(c2ccc(Cl)cn2)C1 (stereo partly drawn) [Compound 28C, 1-(5-chloropyridin-2-yl)-N-((1R,2R)-1-(2,3-dihydrobenzo[b][1,4]dioxin-6-yl)-1-hydroxy-3-(pyrrolidin-1-yl)propan-2-yl)pyrrolidine-3-carboxamide]
20 | F (1-49% (or less than 50%)) | CC(C)Oc1ccc([C@@H](O)[C@@H](CN2CCCC2)NC(=O)[C@H]2CCN(c3ccc(Cl)cc3)C2)cn1 [Compound 29B, (S)-1-(4-chlorophenyl)-N-((1R,2R)-1-hydroxy-1-(6-isopropoxypyridin-3-yl)-3-(pyrrolidin-1-yl)propan-2-yl)pyrrolidine-3-carboxamide]
